Measurements taken from US20130123367A1, “VINYLOGOUS CHALCONE DERIVATIVES AND THEIR MEDICAL USE” (MEDIZINISCHE UNIVERSITAT WIEN, priority 2010, published 2013).

What was measured:
Assay type in all cases: cell-based
HCT116 cell line = experiment: Cell proliferation assay using crystal violet, HCT116; details: Homo sapiens, HCT-116, n = 3, 24 h incubation
Experimental: (§1) For quantification, cells are treated with crystal violet, a dye that stains proteins. After washing away of excess dye, the remaining crystal violet is dissolved in a sodium citrate solution. The solution is analyzed photometrically at 590 nm. The optical density of this solution depends on the concentration of crystal violet and therefore on the amount of cells. […] To reduce effects of evaporation, only the inner 60 wells of 96-well plates (coated with 0.1% gelatine solution for studies with HUVEC) were used for experiments.
(§2) Cells were seeded at a density of 5 000 cells per well in 100 μl growth medium (HUVEC) or 20 000 (HCT116), 15 000 (SW480 and 518A2) or 10 000 (HT29) cells per well in 200 μl growth medium in 55 wells per plate. 5 wells were filled with medium only. Additionally, a 96-well plate with cells in 12 wells and medium in 6 wells was prepared as T0-plate. The next day, additional 98 μl of growth medium were added in every well (only HUVEC).
(§3) Cells were treated with 2 μl of the working solution 24 h after seeding. Final compound concentrations in the well were 10 μM for the first round of screening. The final DMSO concentration was 0.5%. […] After finishing the addition of compounds, the T0-plate was stained with crystal violet for giving the cell density at time point zero. Before staining, the growth medium was poured away. Wells were filled with 50 μl crystal violet solution for 10 min. Then the staining solution was washed away with water. Since crystal violet is environmentally hazardous the waste was collected and disposed in an appropriate manner. After air drying of the plates the crystal violet on the cells was dissolved in 100 μl of sodium citrate solution, and the absorption was measured with a plate reader at 590 nm.
Mean values were corrected with the absorption of stained medium and the corrected absorption of T0 cells. Cell growth was calculated relative to DMSO control for data comparison.

[1] = system: colon cancer cell line HT29; experiment: Cell proliferation assay using crystal violet, HT29; details: Homo sapiens, HT-29, n = 3, 24 h incubation
Experimental: as §1, §2, §3
(§4) Mean values were corrected with the absorption of stained medium and the corrected absorption of T0 cells. Cell growth was calculated relative to DMSO control for data comparison. IC50 values (50% inhibition of cell growth) were determined with GraphPad Prism® (Version 4.03) using nonlinear regression (sigmoidal dose-response with variable slope). […]

[2] = system: melanoma cell line SK-MEL 5; experiment: Crystal violet assay, SK-MEL 5; details: Homo sapiens, n = 3
Experimental: as §1
Cells were treated with 2 μl of the working solution 24 h after seeding. Final compound concentrations in the well were 10 μM for the first round of screening. The final DMSO concentration was 0.5%. […] After finishing the addition of compounds, the T0-plate was stained with crystal violet for giving the cell density at time point zero. […] After air drying of the plates the crystal violet on the cells was dissolved in 100 μl of sodium citrate solution, and the absorption was measured with a plate reader at 590 nm.
as §4

IC50 (HCT116 cell line): 230 nM | IC50 [1]: 540 nM | IC50 [2]: 150 nM
SMILES: COc1ccccc1/C=C/C=C/C(=O)c1cc(OC)c(OC)c(OC)c1 [Compound 1, 5-(2-Methoxyphenyl)-1-(3′,4′,5′-trimethoxyphenyl)-2,4-pentadiene-1-one]
